# From patent EP4610257A1, “CRYSTAL FORM OF ISOQUINOLINONE COMPOUND AND PREPARATION METHOD THEREFOR” (Jiangsu Hengrui Pharmaceuticals Co., Ltd., priority 2022, dated 2024)
# Tests used:
# in vivo = assay: in vivo; parameters: species or system ICR mice; details: both sexes, ICR, mouse, inhaled or intranasal
# Description: Test Example 3: PK Assay by Intratracheal Administration
# Time points for plasma collection were: 0.25 h, 0.5 h, 1 h, 2 h, 4 h, 8 h, 12 h, and 24 h. […] Time points for lung tissue collection were: 0.5 h, 2 h, 8 h, and 24 h.
# 30.0 µL of plasma sample was added to a 1.5 mL centrifuge tube, and 150 µL of an internal standard working solution was added. […] 70.0 µL of the supernatant was added to a 96-well plate, and 70.0 µL of deionized water was added. The resulting mixture was well shaken, and 2.00 µL of the mixture was taken for LC-MS/MS analysis.
# An appropriate amount of the lung tissue sample was accurately weighed out and placed into a homogenate tube, and acetonitrile was added at a volume equivalent to 5 times the weight of the sample. The mixture was homogenized and ultrasonicated for 5 min. 20.0 µL of the lung tissue homogenate sample was taken, and 30.0 µL of an internal standard working solution and 200 µL of acetonitrile were added. […] 100 µL of the supernatant was added to a 96-well plate, and 100 µL of deionized water was added.
# PDE4B1 = PDE4B1 (Homo sapiens, UniProt Q07343); assay: In vitro PDE4B enzyme activity assay, IMAP FP-based; details: for inhibition at 2 µM: read-out: Inhibition rate (%) PDE4B1(2000 nM)
# PDE4B1, sequence (Q07343 whole entry): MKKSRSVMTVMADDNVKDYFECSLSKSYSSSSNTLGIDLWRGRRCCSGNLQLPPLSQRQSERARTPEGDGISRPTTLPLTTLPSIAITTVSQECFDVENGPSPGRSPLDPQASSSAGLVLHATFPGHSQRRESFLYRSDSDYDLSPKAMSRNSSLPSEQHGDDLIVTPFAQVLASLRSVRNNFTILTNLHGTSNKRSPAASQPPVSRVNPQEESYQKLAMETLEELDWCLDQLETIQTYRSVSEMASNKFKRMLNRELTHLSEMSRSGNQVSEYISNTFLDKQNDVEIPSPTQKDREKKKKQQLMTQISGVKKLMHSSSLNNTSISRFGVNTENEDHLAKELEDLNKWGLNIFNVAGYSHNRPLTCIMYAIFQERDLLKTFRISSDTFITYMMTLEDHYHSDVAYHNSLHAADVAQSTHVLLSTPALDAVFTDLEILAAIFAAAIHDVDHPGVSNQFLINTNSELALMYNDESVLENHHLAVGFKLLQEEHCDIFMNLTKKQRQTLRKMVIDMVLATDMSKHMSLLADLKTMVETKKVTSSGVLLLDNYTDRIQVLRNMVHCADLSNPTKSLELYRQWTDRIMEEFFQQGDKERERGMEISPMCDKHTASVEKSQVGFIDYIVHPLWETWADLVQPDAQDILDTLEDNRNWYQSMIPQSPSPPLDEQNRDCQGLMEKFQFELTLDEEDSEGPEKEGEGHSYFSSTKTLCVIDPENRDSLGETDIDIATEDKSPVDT
# PDE3A = PDE3A (Homo sapiens, UniProt Q14432); assay: In vitro PDE3A enzyme activity assay, IMAP FP-based
# PDE3A, sequence (Q14432 669-1141 limits assumed): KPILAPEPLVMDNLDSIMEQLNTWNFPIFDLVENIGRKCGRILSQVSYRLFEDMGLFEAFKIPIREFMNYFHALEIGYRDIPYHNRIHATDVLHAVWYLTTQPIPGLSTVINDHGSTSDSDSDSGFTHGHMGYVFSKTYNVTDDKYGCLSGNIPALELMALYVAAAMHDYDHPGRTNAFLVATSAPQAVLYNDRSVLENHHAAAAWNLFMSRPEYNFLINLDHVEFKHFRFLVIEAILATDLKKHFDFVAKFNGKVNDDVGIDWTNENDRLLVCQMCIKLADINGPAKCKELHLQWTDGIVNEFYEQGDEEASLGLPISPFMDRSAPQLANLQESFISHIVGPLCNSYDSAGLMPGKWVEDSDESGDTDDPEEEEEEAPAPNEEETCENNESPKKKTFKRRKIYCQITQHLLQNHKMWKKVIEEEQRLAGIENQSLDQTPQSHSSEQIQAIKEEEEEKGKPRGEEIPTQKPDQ
SMILES,half-life (in vivo) [min],Tmax (in vivo; Plasma Tmax (h)) [min],IC50 (PDE4B1) [µM],inhibition at 2 µM (PDE4B1) [%],IC50 (PDE3A) [µM],inhibition at 0.5 µM (PDE3A; read-out: Inhibition rate (%) PDE3A (500 nM)) [%]
"COc1cc2c(cc1OC)-c1cc(=Nc3c(C)cc(C)cc3C)n(CCNC(N)=O)c(=O)n1CC2 [RPL554, 9,10-dimethoxy-2-(2,4,6-trimethylphenylimino)-3-(N-carbamoyl-2-aminoethyl)-3,4,6,7-tetrahydro-2H-pyrimido[6,1-a]isoquinolin-4-one]",52.8,15,0.11,64.2,0.00025,99.2
CCOc1cc2c(cc1OC)-c1cc(=Nc3c(C)cc(C)cc3C)n(CCN3CCOC3=O)c(=O)n1CC2 [WX001],,,0.876,66.3,,
